# Where no end group is shown, it is not given here.
# Legend:
# [1] = tested on: NADPH oxidase activity in VSMC membrane fractions; assay: ROS detection by lucigenin-enhanced chemiluminescence; format: cell-based, rat; settings: 30 minute pre-incubation, 100 nM DPI or 100 μM CalC, TNF-α 10 ng/mL 10 minutes
# Description: A7r5 rat aortic smooth muscle cells were seeded at 75% confluence in 10% FBS medium, infected with AdNox1GFP for 48 hours, serum-starved in 0.2% FBS medium for 24 hours. Cells were then subjected to a 30 minute pre-incubation with 100 nM DPI or 100 μM CalC or DMSO, then treated with 10 ng/mL TNF-α for 10 minutes, washed three times in cold PBS, and homogenized in Homogenization Buffer (0.25 M sucrose, 10 mM triethanolamine, 4% protease inhibitor cocktail, 0.1 M EDTA, pH 7.4) with a Tissue Tearor. Lucigenin was then added to a final concentration of 5 μM. Samples were then analyzed by a FB12 Chemiluminometer every 10 seconds for 5 minutes. Then NADPH was added to a final concentration of 100 μM and readings were taken for another 5 m. Average baseline value was subtracted from the average NADPH-stimulated value.
# [2] = tested on: Nox1 phosphorylation in A7r5 rat aortic VSMCs; assay: TNF-α-stimulated Nox1 phosphorylation, anti-p22phox IP / anti-STY Western blot, A7r5 VSMCs; format: cell-based; settings: CalC pretreatment 100 nM, TNF-α 10 ng/mL 10 minutes
# Description: Equal volumes of samples were pre-cleared with Protein G Dynabeads (10 μL/1.5 mg protein in lysate) for 30 minutes at 4° C., end-over-end rotation, followed by a quick spin at high speed, then placed on a magnetic rack for 1 minute. SNT was removed to a new tube on ice. The p22^phox/Nox1 complex was immunoprecipitated using anti-p22^phox antibody C-17 (1 μg/500 μg protein in lysate) and rotated for 45 minutes at 4° C. (Hanna et al., 2004). Next, 20 μL Protein G Dynabeads was added to each sample and rotated for 20 minutes at 4° C., followed by a quick spin at high speed, then placed on a magnetic rack 1 m. SNT was moved to a new tube on ice and frozen for later analysis. The Dynabead pellet was washed three times with 200 μL NP40 buffer, followed by addition of 15 μL twice with sample buffer (4% SDS, 20% glycerol, 10% 2-mercaptoethanol, 0.004% bromphenol blue, 0.125 M Tris HCl, pH 6.8). […] Samples were then analyzed by WB.
# One quarter volume of 5× sample buffer (6 g SDS, 40% glycerol, 30% 2-mercaptoethanol, 383.3 mg dithiothreitol, 372 mg EDTA, 378.3 mg Tris, 50 mg bromphenol blue in 50 ml ddH2O, pH 6.8) was added to lysates. […] Phosphorylation of Nox1 residues was determined utilizing a phospho-serine/threonine/tyrosine (p-STY) antibody that reacts with these residues only under phosphorylated conditions (Zhang et al., 2010, Chen et al., 2006). […]
# [3] = tested on: TNF-α-induced Nox1-dependent ROS production in WT VSMCs; assay: ROS detection by CM-H2DCF fluorescence in VSMCs; format: cell-based, mouse; settings: CalC pretreatment, TNF-α 10 ng/mL 30 minutes
# Description: C57 WT or Nox1^−/y VSMCs were seeded on glass chamber slides at 75% confluence, serum-starved in cell culture medium containing no FBS for 24 h, washed in phenol red-free DMEM, and incubated in 10 μM CM-H2DCFDA for 30 m, pretreated with CalC or DMSO, and treated with 10 ng/mL TNF-α for 30 minutes. The cells were then washed 3×100 μL cold PBS, fixed with 2% paraformaldehyde for 15 minutes, washed twice with PBS, incubated in 1 μM To-Pro-3 for 5 minutes in dark, and washed twice with PBS. The chambers were removed and cells were mounted in Vectashield and imaged by confocal microscopy.
# 500 μL Opti-MEM was added to a 60 mm gelatin-coated cell culture plate. To this siPKC-β or siControl was added (final concentration 200 nM), plus 12 μL RNAiMax. Plates were rocked and incubated for 20 minutes. Cells were detached by use of trypsin, which was quenched in 10% FBS containing no antibiotics, centrifuged at 500 g for 5 minutes, resuspended in 5 mL 10% FBS without antibiotics and counted. Cells were added to plate for a seeding density of 75%, and medium was added to a final volume of 3 mL. Cells were incubated for 5 hours at 37° C., then medium was changed to 10% FBS. The next day, cells were serum starved in medium containing no FBS for 24 hours. Cells were then prepared for analysis by WB, DCF fluorescence or migration assay.
# [4] = tested on: WT VSMC migration; assay: Transwell migration assay to TNF-α; format: cell-based, mouse; settings: CalC pretreatment 30 minutes, 5 hours migration
# Description: WT or Nox1^−/y C57 mouse aortic VSMCs were pretreated with CalC or DMSO (vehicle) for 30 minutes, washed once with PBS, and cells were detached with trypsin, which was quenched with trypsin inhibitor. Cells were transferred to a conical tube, centrifuged at 500 g for 5 minutes. The SNT was aspirated, and cells were resuspended in 125 μL cell culture medium containing no FBS. Cell counts were obtained on a Beckman Z1 Coulter Particle Counter. Cells suspensions were diluted to a concentration of 1,000 cells/μL. 50 μL of the cell suspension was added to the upper chamber of a Costar Transwell Permeable Support (8.0 μm polycarbonate membrane, 6.5 mm insert). 500 μl medium containing no FBS with or without TNF-α was added to the lower chamber. […] Cells were fixed in 4% paraformaldehyde, membranes were removed from support with a scalpel and mounted in Vectashield plus DAPI, cover-slipped and five random fields from each membrane were imaged at 20× and the number of cells migrated to the bottom of the Transwell was counted. […]
# 500 μL Opti-MEM was added to a 60 mm gelatin-coated cell culture plate. […] Cells were detached by use of trypsin, which was quenched in 10% FBS containing no antibiotics, centrifuged at 500 g for 5 minutes, resuspended in 5 mL 10% FBS without antibiotics and counted. […] Cells were then prepared for analysis by WB, DCF fluorescence or migration assay.
# [5] = molecular target: T1, NoxA1 activation domain (AD) peptide LEPMDFLGKAKVV (Homo sapiens, UniProt Q86UR1); assay: Isothermal titration calorimetry peptide interaction; format: binding; settings: ITC, 25° C., pH 7.4, n=3 independent experiments, ± standard deviation; read-out: Affinity (Kd) for the interaction with NoxA1 AD peptide
# T1 construct: purchased ProImmune
# Description: The affinity of the interaction between non-phosphorylated and phosphorylated Nox1 and NoxA1 was determined by isothermal titration calorimetry (ITC). Phosphorylated or non-phosphorylated peptides corresponding to amino acids KLKTQKIYF (SEQ ID NO:9) of Nox1 and a peptide corresponding to amino acids LEPMDFLGKAKVV (SEQ ID NO:10) of NoxA1 peptides were purchased from ProImmune. The peptides were resuspended in 20 mM Na2HPO4, 100 mM […], pH 7.4 to a final concentration of 800 μM (Nox1) and 20 μM (NoxA1). The peptides were degassed and ITC measurements recorded using a MicroCal VP-ITC System (GE Healthcare). 21 injections of Nox1 peptides into NoxA1 peptide were used, with 240 s spacing between events. The chamber was kept under constant stirring at 350 rpm and all experiments were performed at 25° C. […] The constant heat of dilution, as determined by the average of the last 3-5 injections, was subtracted and the data are analyzed using the single site binding model provided in the ITC analysis package. The values for affinity and stoichiometry from three experiments were averaged and shown±standard deviation.
Kd [5] [µM],Compound,TNF-α-primed NADPH oxidase activity (lucigenin-enhanced chemiluminescence) [1],TNF-α-stimulated Nox1 phosphorylation [2],Nox1-dependent ROS production (CM-H2DCF fluorescence) [3],Migration of WT VSMCs to TNF-α [4]
–,"[Cl-].c1ccc2c(c1)[I+]c1ccccc1-2 [DPI, Diphenyleneiodoium chloride]",completely abolished,–,–,–
–,"COc1c(C[C@@H](C)OC(=O)Oc2ccc(O)cc2)c2c3c(C[C@@H](C)OC(=O)c4ccccc4)c(OC)c(=O)c4c(O)cc(OC)c(c5c(OC)cc(O)c(c1=O)c52)c43 [CalC, Calphostin C]",completely abolished,inhibited,abrogated,blocked
> 100,"KLKTQKIYF [Nox1 peptide, KLKTQKIYF]",–,–,–,–
